From patent US11896007B2, “Pest control using natural pest control agent blends” (TYRATECH, INC., priority 2008, dated 2024)

Assays:
[1] = molecular target: T1, Drosophila TyrR (Drosophila melanogaster, UniProt P22270, C261Y); test: Competitive tyramine receptor binding assay with 3H-tyramine
T1 construct: The open reading frame contained in this PCR product encodes a protein of 601 amino acids; expressed in transfected cells
T1 sequence (P22270 27-601 C261Y): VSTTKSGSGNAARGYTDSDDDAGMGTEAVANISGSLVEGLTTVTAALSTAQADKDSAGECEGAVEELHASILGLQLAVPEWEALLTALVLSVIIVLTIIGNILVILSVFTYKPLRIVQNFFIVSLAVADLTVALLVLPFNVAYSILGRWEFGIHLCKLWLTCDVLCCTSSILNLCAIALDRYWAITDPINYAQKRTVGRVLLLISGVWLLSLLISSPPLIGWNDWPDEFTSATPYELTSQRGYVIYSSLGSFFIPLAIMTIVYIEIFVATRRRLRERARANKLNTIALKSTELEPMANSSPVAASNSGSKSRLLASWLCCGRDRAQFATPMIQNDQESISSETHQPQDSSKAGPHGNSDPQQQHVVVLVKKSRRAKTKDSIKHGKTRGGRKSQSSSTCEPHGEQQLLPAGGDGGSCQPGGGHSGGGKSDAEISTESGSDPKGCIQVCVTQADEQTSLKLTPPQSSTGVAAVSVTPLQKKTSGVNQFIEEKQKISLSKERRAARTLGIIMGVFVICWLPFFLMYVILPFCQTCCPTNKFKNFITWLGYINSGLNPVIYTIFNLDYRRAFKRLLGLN

[2] = molecular target: T2, Drosophila tyramine receptor (droTyrR) (Drosophila melanogaster, UniProt P22270, C261Y); test: Intracellular calcium ([Ca2+]i) in S2 cells stably transfected with Drosophila tyramine receptor (Fura-2 AM); type: cell-based; conditions: 1 μM; Dro-TyrR-expressing S2 cells; no increase in pAC control cells (FIG. 25)
T2 construct: The open reading frame contained in this PCR product encodes a protein of 601 amino acids; expressed in transfected cells
T2 sequence (P22270 27-601 C261Y): T1 sequence (P22270 27-601 C261Y)
Procedure: The blend (at a final concentration of 0.5 mg/mL) was tested on a Drosophila Scheider 2 (“S2”) cell line that was stably transfected with a DNA encoding a tyramine receptor that was amplified from a Drosophila melanogaster head cDNA phage library (“droTyrR”). The intracellular calcium levels (“[Ca^2+]i”) in the treated S2 cells were then measured as a function of time. As a comparison, the a solution of carrier (canola oil, final concentration=0.12 mg/mL) and a solution of surfactant (sugar ester OWA-1570) in insect saline were tested separately.
In a separate set of experiments, the blend (at a final concentration of 0.5 mg/mL) was tested on a Drosophila Scheider 2 (“S2”) cell line that was stably transfected with droTyrR DNA, and the intracellular calcium levels (“[Ca^2+]i”) in the treated S2 cells were then measured as a function of time. […]
In yet another separate set of experiments, the blend (at a final concentration of 0.5 mg/mL) was tested on a Drosophila Scheider 2 (“S2”) cell line that was stably transfected with droTyrR DNA, and the intracellular calcium levels (“[Ca^2+]i”) in the treated S2 cells were then measured as a function of time. […]
Increased cytoplasmic concentrations of IP3 induce release of Ca2+ from the endoplasmic reticulum. […] Data are normalized by dividing each value by the background fluorescence at the beginning of the assay before adding the test sample. […]

[3] = molecular target: T1, Drosophila TyrR; test: 3H-tyramine saturation binding to membranes of S2 cells expressing TyrR; conditions: 0.1 to 30 nM 3H-tyramine
Procedure: To first isolate membranes, Dro-TyrR-expressing S2 cells grown in Drosophila media are harvested in the same media by scraping from the dishes and then rinsing dishes with PBS. The cells are centrifuged at 1000 g for 3 min, washed once with PBS and centrifuged again as previously described. The cells are suspended in ice cold hypotonic buffer (10 mM Tris-Cl, pH 7.4), incubated on ice for 10 min, and lysed using a glass Bounce homogenizer and tight glass pestle (Kontes Glass Co., Vineland, N.J.) with 10 strokes. Nuclei are pelleted by centrifugation at 600 g for 5 min. The supernatant is decanted and centrifuged at 30,000 g for 30 min to pellet a crude membrane fraction. The pellet is suspended in binding buffer (50 mM Tris-Cl, 5 mM MgCl2, pH 7.4). Protein concentration is determined by the Bradford Assay (Bio-Rad Laboratories, Hercules, Calif.). Membranes are frozen on dry ice then stored at −75° C. in aliquots.
[…] The binding reaction is incubated at 23° C. in the presence and absence of 10 μM unlabeled tyramine. Reactions are terminated after 60 min by addition of 3 ml ice cold binding buffer and filtered over GF/C filters that have been soaked for 30 min in 0.3% polyethylenimine. Filters are rinsed one additional time with 3 ml binding buffer. […]

## NCC(O)c1ccc(O)cc1 (racemic) [Octopamine (OA), DL-octopamine]
[1]; competitive binding with 3H-tyramine
  Ki: 28.7 µM

## NCCc1ccc(O)cc1 [Tyramine (TA), Tyramine]
[2]
  Ca2+-bound Fura-2 AM fluorescence: sharp increase
[1]; ratio of Ki values
  affinity for TyrR relative to DL-octopamine: about 22.58 fold

## NCCc1ccc(O)cc1 [^3H-tyramine]
[3]; 10 μM unlabeled tyramine for nonspecific binding, read-out: Kd for specific binding
  Kd: 0.00256 µM
[3]; membranes of TyrR-expressing S2 cells
  Bmax for specific binding: 0.679 pmol receptor/mg membrane protein
